Values joined by “and” are separate entries in the source; they are usually repeats but may differ in a detail not shown here. Identical values can stand only once.
How the values were obtained:
[1] = Molar enthalpy of transition or fusion; settings: Crystal; DSC
[2] = Crystal; for vapor or sublimation pressure: Calculated from knudsen effusion weight loss; for Normal melting temperature: DTA

N#Cc1cccc(I)c1 [3-iodobenzonitrile]
Settings	Molar enthalpy of transition or fusion [kcal/mol]	Normal melting temperature [°C]
[1]	3.61	–
[2]	–	40.12

[2]
Settings	vapor or sublimation pressure
276.18 K	9.88e-05 kPa and 0.0001 kPa and 9.93e-05 kPa
278.16 K	0.000122 kPa and 0.000125 kPa and 0.000123 kPa
280.26 K	0.000161 kPa and 0.00016 kPa and 0.000163 kPa
282.15 K	0.000204 kPa and 0.000206 kPa and 0.000207 kPa
284.15 K	0.000269 kPa
286.17 K	0.00034 kPa and 0.000339 kPa and 0.000336 kPa
288.17 K	0.000437 kPa and 0.000432 kPa and 0.000441 kPa
290.14 K	0.000539 kPa and 0.000537 kPa and 0.00054 kPa
292.13 K	0.00069 kPa and 0.000686 kPa and 0.000699 kPa
294.21 K	0.000869 kPa and 0.000876 kPa and 0.000882 kPa
296.14 K	0.0011 kPa and 0.00111 kPa

N#Cc1ccccc1Br [2-bromobenzonitrile]
Settings	Molar enthalpy of transition or fusion [kcal/mol]	Normal melting temperature [°C]
[1]	4.11	–
[2]	–	54.0

N#Cc1ccccc1I [2-iodobenzonitrile]
Settings	Molar enthalpy of transition or fusion [kcal/mol]	Normal melting temperature [°C]
[1]	3.97	–
[2]	–	53.54

[2]
Settings	vapor or sublimation pressure
283.19 K	0.000104 kPa and 0.000103 kPa and 0.000101 kPa
285.15 K	0.000128 kPa and 0.000129 kPa and 0.000125 kPa
287.17 K	0.00016 kPa and 0.000159 kPa and 0.000168 kPa
288.91 K	0.000199 kPa and 0.000205 kPa
291.13 K	0.000263 kPa and 0.000257 kPa and 0.000268 kPa
293.15 K	0.000336 kPa and 0.000341 kPa and 0.000346 kPa
295.15 K	0.000419 kPa and 0.000414 kPa and 0.000427 kPa
297.15 K	0.000521 kPa and 0.000547 kPa
299.12 K	0.000651 kPa and 0.00066 kPa and 0.000671 kPa
301.15 K	0.000857 kPa and 0.000861 kPa and 0.000864 kPa
303.17 K	0.00103 kPa

N#Cc1ccc(Br)cc1 [4-bromobenzonitrile]
Settings	Molar enthalpy of transition or fusion [kcal/mol]
[1]	4.95

N#Cc1ccc(I)cc1 [4-iodobenzonitrile]
Settings	Molar enthalpy of transition or fusion [kcal/mol]	Normal melting temperature [°C]
[1]	5.64	–
[2]	–	125.46

[2]
Settings	vapor or sublimation pressure
294.17 K	0.000111 kPa and 0.000109 kPa and 0.00011 kPa
296.2 K	0.000141 kPa and 0.000143 kPa
298.18 K	0.000182 kPa
300.18 K	0.000226 kPa and 0.000228 kPa and 0.000223 kPa
302.26 K	0.000294 kPa and 0.000296 kPa
304.29 K	0.000353 kPa and 0.000365 kPa and 0.000368 kPa
306.28 K	0.000452 kPa and 0.000454 kPa and 0.000444 kPa
308.2 K	0.000562 kPa and 0.000563 kPa and 0.000565 kPa
310.15 K	0.000715 kPa and 0.000717 kPa and 0.000701 kPa
312.16 K	0.000889 kPa and 0.000882 kPa
314.05 K	0.00108 kPa and 0.00106 kPa

N#Cc1cccc(Br)c1 [3-bromobenzonitrile]
Settings	Molar enthalpy of transition or fusion [kcal/mol]
[1]	3.97

From the NIST ThermoML archive (doi:10.1016/j.jct.2013.06.003)
